Data published in patent US20160243112A1, “TREATMENTS FOR ALZHEIMER'S RELATED DISEASES AND DISORDERS” (Alkermes, Inc., priority 2015, published 2016).
Counter-ions that a name gives are not always drawn.

Assays:
[1] = target: T1, cloned human NMDA receptor (NR1/NR2A) channel (Homo sapiens, UniProt Q05586+Q12879); assay: FLIPR Ca++ flux assay in NR1/NR2A expressing HEK cells; assay type: cell-based
T1 construct: expressed in transfected cells; host or cells: HEK293
Procedure: (§1) The NMDA receptor is an ionotropic glutamate receptor that forms a cation-selective channel. Test articles were assessed for their ability to inhibit calcium flux produced by a positive control agonist (100 μM Glutamic acid+20 μM Glycine) in cloned human NMDA receptor (NR1/NR2A) channel (encoded by the GRIN1 and GRIN2A genes) expressing HEK293 cells. A Fluo-8 calcium kit and a Fluorescence Imaging Plate Reader ([…]™) instrument was used to measure calcium flux. The potential antagonist effect of each test article was measured at eight concentrations (0.1, 0.3, 1, 3, 10, 30, 100, 300 μM; n=4 per concentration) after activating NR1/NR2A channel with the positive control agonist (100 μM Glutamic acid+20 μM Glycine).
as §1

[2] = tested on: olfactory bulbectomized (OBX) rat; assay: Efficacy study in an animal model of agitation: open field locomotor activity in the OBX rat; assay type: in vivo; settings: OBX rats; single s.c. injection 30 min before test; Compound-1 10 and 30 mg/kg
Procedure: The objective of this study is to assess the efficacy of Compound-1 in an animal model of agitation: the olfactory bulbectomized (OBX) rat.
(§2) The study design included 4 treatment groups. Rats were assigned to their respective treatments by stratifying into groups based on body weight and arena. The experiment was carried out on a single day.
(§3) Forty-four male Sprague Dawley rats (Charles River, Raleigh, N.C.) were used for this study. Rats were single housed and weighed 200-225 g upon receipt. All rats were maintained on a 12 h light-12 h dark cycle with free access to food and water. Husbandry was conducted in accordance with the 2011 Guide for the Care and Use of Laboratory Animals (NRC, 2011).
(§4) Subcutaneous doses were administered via flank injection at a dose volume of 1 mL/kg 30 minutes before behavioral testing. Dose volumes were adjusted for the weight of the animal on the day of the experiment.
(§5) OBX rats and their weight-matched non-surgery controls were allowed to acclimate/recover from the surgical procedure for at least 4 weeks to permit the onset of the behavioral deficit. Rats were handled periodically throughout this acclimation period to prevent excessive aggression. […]
The following parameters were assayed: • 1. […] The behavior was recorded and analyzed by an automated tracking system (Med Associates). […]

[3] = tested on: olfactory bulbectomized (OBX) rat; assay: Efficacy study in an animal model of anxiety: marble burying in the OBX rat; assay type: in vivo; settings: OBX rats; 10 mg/kg single s.c. injection 30 min before 20 min test
Procedure: Rodents will also bury non-aversive unconditioned objects, such as food pellets and glass marbles; an effect reversible by compounds that have anxiolytic efficacy.
as §2
as §3, with “Thirty-two” for “Forty-four”
as §4, §5
Marbles were considered “buried” if more than ⅔ surface was not visible. The number of uncovered/buried marbles was recorded and photographed by experimenter blind to drug treatment. […]

[4] = target: T2, PCP binding site of NMDA receptors (Rattus norvegicus, UniProt P35439); assay: CEREP NMDA PCP site binding study (PCP antagonist radioligand assay #0124)
T2 construct: NMDA receptors in rat cerebral cortex cells; tissue CEREP #0124; host or cells: rat cerebral cortex
Procedure: The specific ligand binding to the receptors is defined as the difference between the total binding and the nonspecific binding determined in the presence of an excess of unlabelled ligand. […] The inhibition constants (Ki) were calculated using the Cheng Prusoff equation (Ki=IC50/(1+(L/KD)), where L=concentration of radioligand in the assay, and KD=affinity of the radioligand for the receptor).

Sprague Dawley rat = assay: Open field test of locomotor activity in non-olfactory bulbectomized Sprague Dawley rats; assay type: in vivo; settings: 10 mg/kg s.c. 30 min before 30 min test, vs vehicle
Text: Significant changes in locomotor activity may indicate an abnormal response to a drug (e.g., psychomotor retardation, agitation or behavioral sensitization). The Open field test is a commonly used qualitative and quantitative measure of general locomotor activity and willingness to explore in rodents. The objective of this study is to evaluate the effect of Compound-1 on locomotor activity in the (non-olfactory bulbectomized) rat. This study serves as a control experiment for the agitation and anxiety assays described above.
The study design included 2 treatment groups. Rats were randomized into their respective treatments. The experiment was carried out on a single day.
as §3, with “Sixteen” for “Forty-four”
as §4
Rats were allowed to acclimate to the facility for 1 week before behavioral testing. Rats were placed in the Open field arena 30 minutes post-drug administration for a 30 min test. This experiment was run under dim light and low white noise conditions.
The following parameters were assayed:
1. Distance travelled (cm)
3. Stereotypy counts (arbitrary unit)
4. Number of rears (exploratory behavior)
5. Average velocity (cm/s)
The behavior was recorded and analyzed by an automated tracking system (Med Associates). GraphPad Prism 6.0 was used to prepare graphs and to perform data analysis including one-way ANOVA or t-test analysis of locomotor activity where appropriate.

[5] = Repeat dose general toxicology studies of up to six weeks; assay type: in vivo; settings: rats, daily oral gavage up to six weeks
Text: NMDA antagonists are associated with a wide range of serious toxicities, including neurodegeneration. However, the therapeutic index of an NMDA antagonist can vary widely and is correlated with a property referred to as trapping at the drug binding site within the NMDA receptor channel. Higher trapping agents show increased toxicity relative to lower trapping agents and a reduced therapeutic index. Compounds of Formula I, or a Compound of Table 1, preferably Compound-1, have been evaluated in repeat dose general toxicology studies of up to six weeks in duration in both rats and dogs. In both species, Compounds of Formula I, or a Compound of Table 1, preferably Compound-1, were given daily by oral gavage at doses producing plasma concentrations of the drug that would exceed the expected human therapeutic exposures by at least 30-fold. […] This observation is consistent with the concept of the low trapping nature of Compounds of Formula I, or a Compound of Table 1, preferably Compound-1, and an improved therapeutic index over other NMDA antagonists characterized as high trapping agents.

T1 sequence (Q12879 23-1464, other chains not shown): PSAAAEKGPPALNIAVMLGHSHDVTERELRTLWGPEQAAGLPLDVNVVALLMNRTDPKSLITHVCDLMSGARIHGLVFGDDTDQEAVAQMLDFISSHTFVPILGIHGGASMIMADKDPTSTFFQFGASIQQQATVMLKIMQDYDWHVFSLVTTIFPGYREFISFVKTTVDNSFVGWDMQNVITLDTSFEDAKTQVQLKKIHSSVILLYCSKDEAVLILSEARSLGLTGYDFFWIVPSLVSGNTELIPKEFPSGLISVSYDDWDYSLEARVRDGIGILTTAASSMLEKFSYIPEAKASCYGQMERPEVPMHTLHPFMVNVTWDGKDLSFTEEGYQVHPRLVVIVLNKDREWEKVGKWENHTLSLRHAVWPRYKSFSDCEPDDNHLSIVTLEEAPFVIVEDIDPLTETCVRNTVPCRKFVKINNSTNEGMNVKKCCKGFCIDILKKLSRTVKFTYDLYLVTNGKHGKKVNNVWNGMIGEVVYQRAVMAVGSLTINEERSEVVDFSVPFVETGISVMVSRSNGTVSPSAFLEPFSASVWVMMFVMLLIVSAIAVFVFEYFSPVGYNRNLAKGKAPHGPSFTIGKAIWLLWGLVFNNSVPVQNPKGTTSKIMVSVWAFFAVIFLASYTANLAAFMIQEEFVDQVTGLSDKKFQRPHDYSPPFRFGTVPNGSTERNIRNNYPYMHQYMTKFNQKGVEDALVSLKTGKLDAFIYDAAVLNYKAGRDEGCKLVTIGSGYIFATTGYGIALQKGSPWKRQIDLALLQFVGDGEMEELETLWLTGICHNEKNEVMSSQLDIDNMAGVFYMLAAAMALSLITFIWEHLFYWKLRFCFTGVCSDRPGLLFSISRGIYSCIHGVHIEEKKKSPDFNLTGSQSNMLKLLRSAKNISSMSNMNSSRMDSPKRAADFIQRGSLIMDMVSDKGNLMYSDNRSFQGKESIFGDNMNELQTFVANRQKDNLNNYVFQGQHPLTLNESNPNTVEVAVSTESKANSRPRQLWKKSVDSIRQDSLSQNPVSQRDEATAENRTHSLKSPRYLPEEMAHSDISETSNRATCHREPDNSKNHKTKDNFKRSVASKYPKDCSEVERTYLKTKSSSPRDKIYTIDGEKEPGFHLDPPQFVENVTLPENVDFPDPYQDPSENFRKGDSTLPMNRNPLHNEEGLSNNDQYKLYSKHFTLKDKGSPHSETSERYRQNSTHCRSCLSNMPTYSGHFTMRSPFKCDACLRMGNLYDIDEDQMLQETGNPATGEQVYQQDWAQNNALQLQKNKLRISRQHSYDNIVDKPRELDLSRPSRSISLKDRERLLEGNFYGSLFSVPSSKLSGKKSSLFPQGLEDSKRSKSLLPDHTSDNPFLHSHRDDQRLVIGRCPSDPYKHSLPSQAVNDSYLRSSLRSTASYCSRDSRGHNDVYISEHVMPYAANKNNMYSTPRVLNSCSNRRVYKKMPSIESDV

Compound | IC50 [1] [µM] | also measured
Cc1nnc(-c2ccc3c(c2)[C@]24CCCC[C@@H]2[C@H](C3)N(C)CC4)s1 [Compound-3, 2-methyl-5-((4bS,9S)-11-methyl-6,7,8,8a,9,10-hexahydro-5H-9,4b-(epiminoethano)phenanthren-3-yl)-1,3,4-thiadiazole hydrochloride] | 94 | 
CN1CC[C@@]23CCCCC2[C@@H]1Cc1ccc(-c2nnc(C(F)(F)F)s2)cc13 (stereo partly shown) | > 500 | 
CN1CC[C@@]23CCCC[C@@H]2[C@@H]1Cc1ccc(Br)cc13 | 49 | 
CN1CC[C@@]23CCCCC2[C@@H]1Cc1ccc(-c2nnc(N)s2)cc13 (stereo partly shown) | 35.5 | 
CN1CC[C@@]23CCCCC2[C@@H]1Cc1ccc(-c2nnc(C(C)(C)O)s2)cc13 (stereo partly shown) | > 500 | 
CN1CC[C@@]23CCCC[C@@H]2[C@@H]1Cc1ccc(-c2nncs2)cc13 [Compound-2, 2-((4bS,9S)-11-methyl-6,7,8,8a,9,10-hexahydro-5H-9,4b-(epiminoethano)phenanthren-3-yl)-1,3,4-thiadiazole hydrochloride] | 225 | 
c1ccc(C2(N3CCCCC3)CCCCC2)cc1 [Phencyclidine (PCP), Phencyclidine, reference compound] | 7.5 | 
CN1CC[C@@]23CCCCC2[C@@H]1Cc1ccc(-c2nnc(CO)s2)cc13 (stereo partly shown) | 47.5 | 
CN1CC[C@@]23CCCCC2[C@@H]1Cc1ccc(-c2nccs2)cc13 (stereo partly shown) | 33 | 
CN1CC[C@@]23CCCCC2[C@@H]1Cc1ccc(-c2cscn2)cc13 (stereo partly shown) | 50 | 
COc1ccc2c(c1)[C@]13CCCC[C@@H]1[C@H](C2)N(C)CC3 [Dextromethorphan (DMX), Dextromethorphan, reference compound] | 107 | locomotor response (distance travelled) in open field [2]: blocks the locomotor response; burying response (marbles buried) [3]: blocked this burying response
CN1CC[C@@]23CCCCC2[C@@H]1Cc1ccc(-c2ccsn2)cc13 (stereo partly shown) | 15 | 
Cc1nnc(-c2ccc3c(c2)[C@]24CCCCC2[C@H](C3)N(CCc2ccccc2)CC4)s1 (stereo partly shown) | > 500 | 
CN1CC[C@@]23CCCCC2[C@@H]1Cc1ccc(-c2nnc(C(C)(C)C)s2)cc13 (stereo partly shown) | > 500 | 
Cc1nnc(-c2ccc3c(c2)[C@]24CCCC[C@@H]2[C@H](C3)N(C)CC4)o1 | > 500 | 
O=C(O)c1ccc2c(c1)[C@]13CCCC[C@@H]1[C@H](C2)N(CCc1ccccc1)CC3 | > 500 | 
CNC1(c2ccccc2Cl)CCCCC1=O (stereo not shown) [Ketamine, reference compound] | 57.2 | 
CN1CC[C@@]23CCCC[C@@H]2[C@@H]1Cc1ccc(C(N)=O)cc13 [Compound-1] | 225 | locomotor response (distance travelled) in open field [2]: blocked this hyperlocomotor response; burying response (marbles buried) [3]: blocked this burying response; Ki [4]: 7.4 µM; mode of binding to the PCP binding site ([4]; rat cerebral cortex): binds competitively; effect on average velocity (Sprague Dawley rat): no effect; effect on jumping behavior (Sprague Dawley rat): no effect; effect on locomotor activity (distance travelled) (Sprague Dawley rat): no effect; effect on rearing (Sprague Dawley rat): no effect; effect on stereotypy (Sprague Dawley rat): no effect; clinical changes ([5]; highest doses evaluated): increased bone fractures and abnormalities in incisors; neurodegeneration ([5]; when clinical signs were present): no evidence of neurodegeneration
